The text below walks through data of PMC12362587, “Untargeted Diversity-Oriented Synthesis for the Discovery of New Antitumor Agents: An Integrated Approach of Inverse Virtual Screening, Bioinformatics, and Omics for Target Deconvolution” (Journal of Medicinal Chemistry, 2025).

One series can be described thus: MTT cell viability assay. The following applies: human, HaCaT keratinocyte cells (healthy control line), 24 h, compounds 0.01–40 μM, healthy control line, read-out: In Vitro Cytotoxicity, EC50 ± SD, HaCaT. It counts as cell-based, human. The source says: (§1) Initially, we phenotypically screened the synthesized compounds over a panel of tumor cell lines composed of HEPG2, A375, SHSY5Y, MCF7, and A549 derived from liver tumor, melanoma, neuroblastoma, breast cancer, and lung adenocarcinoma, respectively. We also considered the HaCaT cell line, coming from keratinocytes, as a healthy control line. As reference, cytotoxic chemotherapeutic agent 5-fluorouracil (5-FU) has been used. The results obtained performing the MTT (3-(4,5-dimethylthiazolyl-2)-2,5-diphenyltetrazolium bromide) assay are summarized in Table .
(§2) The human neuroblastoma SHSY5Y, melanoma A375, human breast cancer MCF7, nonsmall lung cancer A549, and human epidermal keratinocyte HaCaT cell lines were obtained from ATCC and were grown in Dulbecco’s Modified Eagle Medium (DMEM) supplemented with 10% (v/v) FBS, 2 mM L-glutamine, 100 U/mL penicillin, and 0.1 mg/mL streptomycin.
(§3) Cell viability was established by measuring mitochondrial metabolic activity with MTT. In brief, HEPG2 (1 × 10^4 cells/well), A375 (2 × 10^3 cells/well), HaCaT (3 × 10^3 cells/well), A549 (3 × 10^3 cells/well), SHSY5Y (2 × 10^4 cells/well), and MCF 7 (5 × 10^3 cells/well) were plated into 96-well plates for 24 h, then the compounds (0.01–40 μM) were added. After 24h, cells were replaced with a fresh medium containing 0.5 mg/mL MTT. Cells were incubated 1–3 h at 37 °C, then the medium was discarded, and formazan blue crystals in the cells were dissolved in 100 μL per well of a solution containing isopropanol/HCl 0.1 M. The absorbance was measured at 570 nm using a microplate reader (Multiskan Go, Thermo Scientific, Waltham, MA, USA). Cell viability was expressed as a percentage relative to the untreated cells cultured in medium with 0.1% DMSO and set to 100%, whereas 10% DMSO was used as positive control and set to 0% of viability. The EC50 values were calculated using GraphPad Prism 8.0 software by nonlinear regression of dose–response inhibition.
For orientation: Tetrazolium assays rely on reduction of a dye to a coloured formazan, in cell work by metabolically active cells.

Another series concerns HEPG2. Briefly: MTT cell viability assay. The following applies: Homo sapiens, 24 h, compounds 0.01–40 μM, read-out: In Vitro Cytotoxicity, EC50 ± SD, HEPG2. It counts as cell-based.
Source text: as §1
The human hepatoma HEPG2 cell line was obtained from American Type Culture Collection (ATCC, Rockville, MD, USA). Cells were grown in Eagle’s Minimum Essential Medium (EMEM) supplemented with 10% (v/v) fetal bovine serum (FBS), 2 mM L-glutamine, 1% (v/v) nonessential amino acids, 100 U/mL penicillin, and 0.1 mg/mL streptomycin.
as §3

Another series concerns A375. Briefly: MTT cell viability assay. It counts as cell-based. As to conditions: Homo sapiens, A-375, 24 h, compounds 0.01–40 μM, read-out: In Vitro Cytotoxicity, EC50 ± SD, A375.
Source text: as §1, §2, §3

In a further series the test system is A549. The experiment in a line: MTT cell viability assay. It counts as cell-based. As to conditions: Homo sapiens, 24 h, compounds 0.01–40 μM, read-out: In Vitro Cytotoxicity, EC50 ± SD, A549.
Source text: as §1, §2, §3

The subject of the next series is MCF7. The experiment in a line: MTT cell viability assay. It counts as cell-based. The following applies: Homo sapiens, 24 h, compounds 0.01–40 μM, read-out: In Vitro Cytotoxicity, EC50 ± SD, MCF7.
Source text: as §1, §2, §3

Another series concerns SHSY5Y. The experiment in a line: MTT cell viability assay. It counts as cell-based. As to conditions: Homo sapiens, SH-SY5Y, 24 h, compounds 0.01–40 μM, read-out: In Vitro Cytotoxicity, EC50 ± SD, SHSY5Y.
Source text: as §1, §2, §3

For series [1], the system named is cancer cell lines (HEPG2, A375, SHSY5Y, MCF7, A549). The experiment in a line: MTT cytotoxicity screen over panel of tumor cell lines. It counts as cell-based, human. As to conditions: in words.
Source text: as §1, §3

As a reminder, the EC50 is the concentration at which the effect is half-maximal. `O=C1N[C@@H](Cc2ccccc2)C(=O)N(Cc2ccc(C(F)(F)F)cc2)c2ccccc21` [Compound 28, (S)-3-Benzyl-1-(4-(trifluoromethyl)benzyl)-3,4-dihydro-1H-benzo[e][1,4]diazepine-2,5-dione]: the EC50 at 24 h in “MTT cell viability assay” stood at 26.9 ± 4.4 µM. Besides, the 50% effective concentration (EC50) with HEPG2 was found to be 11.1 ± 2.25 µM; in the series on A375, 13 ± 2.1 µM; in the series on A549 it was 8.8 ± 1.37 µM; in the series on MCF7, 11.7 ± 3.12 µM; in the series with SHSY5Y, 10.7 ± 1.26 µM. Besides, the “selectivity, tumor cell lines versus healthy line” value in series [1] was “lack of selectivity”.
Regarding `CC(C)COC(=O)[C@H](Cc1ccccc1)n1c(=O)[nH]c2ccccc2c1=O` [Compound 22, Isobutyl (S)-2-(2,4-Dioxo-1,4-dihydroquinazolin-3(2H)-yl)-3-phenylpropanoate], the concentration for a half-maximal effect (EC50) at 24 h in “MTT cell viability assay” was 27 ± 4.09 µM. The EC50 in the series on HEPG2 worked out at 4.28 ± 2.04 µM; with A375, 7.12 ± 2.54 µM; with A549 it was 36.3 ± 5.72 µM; with MCF7, 11.2 ± 3.14 µM; with SHSY5Y, 30.4 ± 3.92 µM.
As to `CC(C)C[C@H]1CN(Cc2ccc(C(F)(F)F)cc2)c2ccccc2C(=O)N1Cc1ccc(C(F)(F)F)cc1` [Compound 34, (S)-3-Isobutyl-1,4-bis(4-(trifluoromethyl)benzyl)-1,2,3,4-tetrahydro-5H-benzo[e][1,4]diazepin-5-one], in “MTT cell viability assay”, the 50% effective concentration (EC50) at 24 h was above 40 µM. For the same molecule, the concentration giving a half-maximal response (EC50) was 11.5 ± 2.16 µM with HEPG2; 5.14 ± 2.15 µM in the series on A375; 17.6 ± 3.65 µM in the series with A549; above 40 µM with MCF7; above 40 µM in the series on SHSY5Y.
Take `CC(C)C[C@@H]1NC(=O)[C@H](Cc2ccccc2)N(Cc2ccccc2)C1=O` [Compound 41, (3S,6S)-1,6-Dibenzyl-3-isobutylpiperazine-2,5-dione]: in the series “MTT cell viability assay”, the EC50 at 24 h was above 40 µM. For the same molecule, the EC50 in the series with HEPG2, with A375, in the series on A549, with MCF7 and with SHSY5Y was above 40 µM throughout. For the same molecule, the “cytotoxic activity over the cancer cell lines” value in series [1] was “no activity”.
As for `CC(C)C[C@H]1C(=O)Nc2ccccc2N1Cc1ccccc1` [Compound 49, (S)-4-Benzyl-3-isobutyl-3,4-dihydroquinoxalin-2(1H)-one], the EC50 at 24 h in the series “MTT cell viability assay” is above 40 µM. Further, the EC50 in the series on HEPG2, with A375, in the series on A549, with MCF7 and with SHSY5Y was above 40 µM in each case. For the same molecule, the “cytotoxic activity over the cancer cell lines” value in series [1] is on record as “no activity”.
Consider `CC(C)CN1Cc2ccccc2NC[C@@H]1Cc1ccccc1` [Compound 37, (S)-3-Benzyl-4-isobutyl-2,3,4,5-tetrahydro-1H-benzo[e][1,4]diazepine], for which the concentration for a half-maximal effect (EC50) at 24 h in the series “MTT cell viability assay” was above 40 µM. In addition, the EC50 in the series with HEPG2 was above 40 µM; with A375, 8.92 ± 2.72 µM; in the series with A549, above 40 µM; in the series with MCF7, above 40 µM; in the series with SHSY5Y, above 40 µM.
With `CC(C)CN1c2ccccc2NC(=O)[C@@H]1Cc1ccccc1` [Compound 48, (S)-3-Benzyl-4-isobutyl-3,4-dihydroquinoxalin-2(1H)-one], the EC50 at 24 h in the series “MTT cell viability assay” was above 40 µM. The half-maximal effective concentration (EC50) with HEPG2 was above 40 µM; in the series with A375 it was above 40 µM; in the series on A549, 35.5 ± 5.48 µM; with MCF7, above 40 µM; with SHSY5Y, above 40 µM. Further, the “cytotoxic activity over the cancer cell lines” value in series [1] is “no activity”.
`CC(C)C[C@H]1CN(Cc2ccc(C(F)(F)F)cc2)c2ccccc2CN1Cc1ccc(C(F)(F)F)cc1` [Compound 38, (S)-3-Isobutyl-1,4-bis(4-(trifluoromethyl)benzyl)-2,3,4,5-tetrahydro-1H-benzo[e][1,4]diazepine]: the EC50 at 24 h in “MTT cell viability assay” was above 40 µM. For the same molecule, the concentration for a half-maximal effect (EC50) in the series on HEPG2 was 15.4 ± 1.71 µM; in the series on A375, 23.1 ± 3.1 µM; in the series with A549, 37.9 ± 1.64 µM; with MCF7, above 40 µM; with SHSY5Y it was above 40 µM.
Take `O=C1[C@H](Cc2ccccc2)N(Cc2ccc(C(F)(F)F)cc2)C(=O)c2ccccc2N1Cc1ccc(C(F)(F)F)cc1` [Compound 30, (S)-3-Benzyl-1,4-bis(4-(trifluoromethyl)benzyl)-3,4-dihydro-1H-benzo[e][1,4]diazepine-2,5-dione]: the EC50 at 24 h in the series “MTT cell viability assay” was above 40 µM. The EC50 with HEPG2 was 5.06 ± 1.73 µM; with A375 it was 7.44 ± 2.12 µM; in the series with A549, above 40 µM; in the series with MCF7, 13.8 ± 3.11 µM; in the series with SHSY5Y, 37.3 ± 4.45 µM.
In the case of `CC(C)C[C@H]1CNc2ccccc2C(=O)N1Cc1ccc(C(F)(F)F)cc1` [Compound 33, (S)-3-Isobutyl-4-(4-(trifluoromethyl)benzyl)-1,2,3,4-tetrahydro-5H-benzo[e][1,4]diazepin-5-one], the EC50 at 24 h in the series “MTT cell viability assay” amounted to 9.62 ± 1.12 µM. Also, the concentration for a half-maximal effect (EC50) in the series with HEPG2 stood at 2.69 ± 0.85 µM; with A375, 2.51 ± 1.02 µM; in the series with A549, 10.4 ± 1.01 µM; in the series on MCF7, 13.9 ± 2.78 µM; in the series on SHSY5Y it was 13.5 ± 2.22 µM. The “selectivity, tumor cell lines versus healthy line” value in series [1] is given as “lack of selectivity”.
As to `CC(C)C[C@@H]1NC(=O)OCc2ccccc2NC1=O` [Compound 52, (S)-3-Isobutyl-1,3,4,7-tetrahydrobenzo[g][1,3,6]oxadiazonine-2,5-dione], in “MTT cell viability assay”, the EC50 at 24 h was above 40 µM. In addition, the EC50 in the series with HEPG2, in the series on A375, in the series on A549, in the series on MCF7 and with SHSY5Y was above 40 µM each time. In addition, the “cytotoxic activity over the cancer cell lines” value in series [1] is “no activity”.
On to `CC(C)C[C@@H]1NC(=O)c2ccccc2N(Cc2ccc(C(F)(F)F)cc2)C1=O` [Compound 29, (S)-3-Isobutyl-1-(4-(trifluoromethyl)benzyl)-3,4-dihydro-1H-benzo[e][1,4]diazepine-2,5-dione], for which the EC50 at 24 h in the series “MTT cell viability assay” is above 40 µM. Further, the concentration giving a half-maximal response (EC50) in the series with HEPG2 is 25.8 ± 2.74 µM; with A375, 29.4 ± 4.43 µM; with A549 it was above 40 µM; in the series with MCF7 it was above 40 µM; in the series with SHSY5Y, above 40 µM.
As for `O=c1[nH]cc(F)c(=O)[nH]1` [Compound 5-FU, 5-fluorouracil, reference compound], in the series “MTT cell viability assay”, the EC50 at 24 h came out at 0.481 ± 0.059 µM. The concentration for a half-maximal effect (EC50) with HEPG2 was 0.056 ± 0.021 µM; with A375, 0.032 ± 0.011 µM; in the series on A549, 0.047 ± 0.02 µM; in the series on MCF7, 0.023 ± 0.009 µM; with SHSY5Y it was 0.072 ± 0.026 µM.
For the molecule `CC(C)COC(=O)[C@H](Cc1ccccc1)N1Cc2ccccc2NC1=O` [Compound 64, Isobutyl (S)-2-(2-Oxo-1,4-dihydroquinazolin-3(2H)-yl)-3-phenylpropanoate], the 50% effective concentration (EC50) at 24 h in the series “MTT cell viability assay” turned out to be 24.4 ± 4.51 µM. The concentration for a half-maximal effect (EC50) in the series on HEPG2 came to 7.97 ± 2.45 µM; with A375, 8.64 ± 1.66 µM; in the series on A549, 32.3 ± 5.76 µM; in the series with MCF7, 9.55 ± 1.05 µM; with SHSY5Y, 28.2 ± 3.2 µM. Also, the “selectivity, tumor cell lines versus healthy line” value in series [1] is “lack of selectivity”.
On to `CC(C)C[C@@H](C(=O)OCc1ccccc1)n1c(=O)[nH]c2ccccc2c1=O` [Compound 23, Benzyl (S)-2-(2,4-Dioxo-1,4-dihydroquinazolin-3(2H)-yl)-4-methylpentanoate], for which the concentration for a half-maximal effect (EC50) at 24 h in the series “MTT cell viability assay” worked out at 10.2 ± 1.84 µM. Moreover, the EC50 in the series on HEPG2 turned out to be 1.7 ± 1.05 µM; with A375, 3.88 ± 1.64 µM; with A549 it was 4.12 ± 1.89 µM; in the series with MCF7, 12.2 ± 2.64 µM; with SHSY5Y, 3.5 ± 1.41 µM. The “selectivity, tumor cell lines versus healthy line” value in series [1] is “lack of selectivity”.
